Laboratory results as given in the supplement of paper PMC10307832.

Tests used:
Test in all cases: relative viability (nuclei count vs DMSO), 5 days (fraction); higher = more cells survive
[1] = compound: CCn1c(-c2nonc2N)nc2c(C#CC(C)(C)O)ncc(OC[C@H]3CCCNC3)c21 + COc1cccc2cc(-c3nc([C@H]4CC[C@H](C(=O)O)CC4)n4ncnc(N)c34)[nH]c12 [OSI-027] (partner 0.5 µM)
In short: (§1)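 Dosing by pin tool came one day after lung cancer cell lines were seeded in 1536-well plates, using either one drug or a fixed anchor-drug dose plus five library-drug doses (not always all listed) in √10 steps. After 5 days, nuclei were counted on 4× images. Relative viability is treated-well nuclei count divided by vehicle-well nuclei count, and values are medians of duplicate plates.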

[2] = compound: CCn1c(-c2nonc2N)nc2c(C#CC(C)(C)O)ncc(OC[C@H]3CCCNC3)c21 + Nc1nc2[nH]cc(CCc3ccc(C(=O)N[C@@H](CCC(=O)O)C(=O)O)cc3)c2c(=O)[nH]1 [Pemetrexed] (partner 0.2 µM)
In short: as §1

BAM7 + Foretinib = compound: CCOC1=CC=CC=C1N=NC2=C(NN(C2=O)C3=NC(=CS3)C4=CC=CC=C4)C [BAM7] + COc1cc2c(Oc3ccc(NC(=O)C4(C(=O)Nc5ccc(F)cc5)CC4)cc3F)ccnc2cc1OCCCN1CCOCC1 [Foretinib] (partner 0.25 µM)
In short: as §1

[3] = compound: CCn1c(-c2nonc2N)nc2c(C#CC(C)(C)O)ncc(OC[C@H]3CCCNC3)c21 + CS(=O)(=O)CCNCc1ccc(-c2ccc3ncnc(Nc4ccc(OCc5cccc(F)c5)c(Cl)c4)c3c2)o1 [Lapatinib] (partner 2 µM)
In short: as §1

Cell Line	relative viability ([1]; first compound 0.01 µM)	relative viability ([1]; first compound 0.03162 µM)	relative viability ([1]; first compound 0.1 µM)	relative viability ([1]; first compound 0.3162 µM)	relative viability ([1]; first compound 1 µM)	relative viability ([2]; first compound 0.01 µM)	relative viability ([2]; first compound 0.03162 µM)	relative viability ([2]; first compound 0.1 µM)	relative viability ([2]; first compound 0.3162 µM)	relative viability ([2]; first compound 1 µM)	relative viability (BAM7 + Foretinib; first compound 0.5 µM)	relative viability (BAM7 + Foretinib; first compound 5 µM)	relative viability (BAM7 + Foretinib; first compound 15.81 µM)	relative viability (BAM7 + Foretinib; first compound 50 µM)	relative viability ([3]; first compound 0.01 µM)	relative viability ([3]; first compound 0.03162 µM)	relative viability ([3]; first compound 0.1 µM)	relative viability ([3]; first compound 0.3162 µM)	relative viability ([3]; first compound 1 µM)
NCI-H23	0.679	0.612	0.606	0.638	0.597	0.647	0.642	0.58	0.579	0.611	1.05	1.03	0.928	1.1	1.07	1.05	1.14	1.17	0.776
NCI-H322M	0.479	0.496	0.45	0.42	0.483	0.634	0.571	0.556	0.568	0.571	0.939	0.95	0.862	0.932	0.562	0.608	0.394	0.614	0.524
NCI-H358	0.723	0.822	0.692	0.445	0.373	0.231	0.192	0.176	0.182	0.166	0.834	0.84	0.642	0.634	0.453	0.485	0.449	0.4	0.398
NCI-H460	0.579	0.784	0.588	0.535	0.548	0.0616	0.0628	0.063	0.0642	0.0565	0.926	0.982	0.878	0.969	0.949	1.14	1.02	0.862	0.775
NCI-H520	0.221	0.266	0.208	0.183	0.173	0.565	0.686	0.577	0.523	0.352	0.736	0.825	0.767	0.804	0.923	0.952	0.727	0.454	0.425
NCI-H596	0.618	0.789	0.663	0.668	0.645	0.48		0.443	0.47	0.5	0.874	0.883	0.762	0.951	0.935	0.954	0.92	0.901	0.986
NCI-H647	0.579	0.652	0.615	0.419	0.687	0.196	0.168	0.179	0.163	0.142	1.4	1.2	1.16	1.21	0.874	1.23	1.08	0.788	0.981
NCI-H650	0.412	0.39	0.495	0.463	0.441	0.957	0.862	0.988	1.02	0.919	0.988	1.14	1	0.992	0.733	0.838	0.783	0.753	0.741
NCI-H661	0.659	0.781	0.644	0.553	0.501	0.903	0.937	0.938	0.713	0.926	1.02	1.08	0.964	1.11	0.505	0.539	0.249	0.502	0.489
NCI-H838	0.354	0.406	0.367	0.401	0.428	0.248	0.251	0.238	0.225	0.255	1.08	1.22	0.985	0.989	1.11	1.13	1.1	0.853	0.968
NCI-H1355	0.451	0.379	0.378	0.393	0.424	0.959	0.981	1.02	1.02	1.06	0.936	0.907	0.795	0.791	1.03	0.944	0.998	0.926	1.02
NCI-H1395	0.496	0.597	0.552	0.556	0.555	0.745	0.811	0.793	0.647	0.769	1.01	1.09	1.01	1.05	0.815	0.842	0.858	0.769	0.869
NCI-H1437	0.815	0.951	0.885	0.758	0.897	0.338	0.324	0.318	0.353	0.283	1.31	1.2	1.21	1.2	0.841	0.821	0.877	0.719	0.795
NCI-H1563	0.73	0.783	0.686	0.688	0.666	0.76	0.674	0.678	0.702	0.854	0.898	0.82	0.868	0.963	0.93	0.94	0.924	0.926	0.781
NCI-H1650	0.641	0.625	0.508	0.421	0.359	0.361	0.352	0.369	0.359	0.348	1.34	1.2	1.01	1.04	0.758	0.864	0.708	0.725	0.578
NCI-H1651	0.719	0.676	0.723	0.563	0.9	0.653	0.605	0.597	0.574	0.572	0.893	0.837	0.686	0.829	0.816	0.854	0.798	0.715	0.842
NCI-H1666	0.776	0.777	0.835	0.693	0.722	0.865	0.857	0.782	0.885	0.907	0.945	1.1	0.996	1.06	0.552	0.487	0.469	0.521	0.508

Cell Line	relative viability ([1]; first compound 0.01 µM)	relative viability ([1]; first compound 0.03162 µM)	relative viability ([1]; first compound 0.1 µM)	relative viability ([1]; first compound 0.3162 µM)	relative viability ([1]; first compound 1 µM)	relative viability ([2]; first compound 0.01 µM)	relative viability ([2]; first compound 0.03162 µM)	relative viability ([2]; first compound 0.1 µM)	relative viability ([2]; first compound 0.3162 µM)	relative viability ([2]; first compound 1 µM)	relative viability (BAM7 + Foretinib; first compound 0.5 µM)	relative viability (BAM7 + Foretinib; first compound 5 µM)	relative viability (BAM7 + Foretinib; first compound 15.81 µM)	relative viability (BAM7 + Foretinib; first compound 50 µM)	relative viability ([3]; first compound 0.01 µM)	relative viability ([3]; first compound 0.03162 µM)	relative viability ([3]; first compound 0.1 µM)	relative viability ([3]; first compound 0.3162 µM)	relative viability ([3]; first compound 1 µM)
NCI-H1734	0.574	0.632	0.538	0.478	0.382	0.389	0.419	0.385	0.391	0.431	0.849	1	0.779	0.825	1.01	1.02	0.896	0.885	0.825
NCI-H1755	0.704	0.697	0.704	0.69	0.638	0.476	0.439	0.419	0.393	0.383	0.951	0.941	0.961	0.95	1.03	1.02	1.03	0.993	1.07
NCI-H1793	0.279	0.29	0.232	0.251	0.252	0.864	0.917		0.845	0.923	0.679	0.619	0.727	0.928	0.75	0.699	0.577	0.548	0.939
NCI-H1915	0.625	0.648	0.573	0.629	0.652	0.452	0.514	0.487	0.444	0.49	1.21	1.15	1.02	1.02	0.981	0.889	0.956	0.927	0.973
NCI-H1944	0.367	0.403	0.434	0.37	0.401	0.618	0.622	0.657	0.565	0.631	0.79	0.905	0.767	0.888	0.767	0.825	0.751	0.773	0.819
NCI-H1975	0.747	0.824	0.616	0.57	0.6	0.278	0.323	0.29	0.279	0.295	0.77	0.801	0.718	0.829	0.828	0.975	0.927	0.799	0.728
NCI-H1993	0.579	0.537	0.525	0.546	0.549	0.642	0.509	0.516	0.553	0.519	0.73	0.738	0.717	0.708	0.957	0.781	0.947	0.704	0.872
NCI-H2009	0.577	0.658	0.578	0.569	0.584	1.08	1.09	1.06	1.14	1.06	1.28	1.33	1.26	1.21	0.974	1.03	1.05	1.02	0.905
NCI-H2023	0.369	0.411	0.307	0.202	0.195	0.211	0.26	0.211	0.176	0.178	0.925	0.783	0.803	0.964	0.74	0.792	0.769	0.689	0.953
NCI-H2085	0.84	0.895	0.806	0.72	0.656	0.934	0.88	0.914	0.873	0.992	0.973	1.18	0.743	1.19	0.8	0.7	0.601	0.574	0.573
NCI-H2087	0.479	0.522	0.652	0.477	0.467	0.614		0.646	0.615	0.613	1.18	1.23	0.995	1.12	0.965	0.999	0.899	1.07	1.03
NCI-H2126	0.749	0.69	0.675	0.624	0.677	0.706	0.692	0.684	0.731	0.669	1.18	1.05	0.889	0.923	0.779	0.773	0.641	0.731	0.755
NCI-H2170	0.733	0.715	0.766	0.66	0.679	0.278	0.286	0.266	0.271	0.234	0.973	0.994	0.91	1	0.283	0.254	0.266	0.261	0.302
NCI-H2228	0.628	0.559	0.446	0.421	0.279	0.336	0.302	0.328	0.339	0.318	1.04	0.964	0.879	1.16	1.27	1.09	1.02	0.755	0.729
NCI-H2347	0.419	0.42		0.466	0.336	0.46	0.399	0.385	0.432	0.39	1.23	0.918	0.969	0.981	0.891	0.934	0.995	0.897	0.889
NCI-H2405	0.646	0.647	0.597	0.612	0.612	1.03	1.12	0.964	0.96	1.13	1.04	1.12	1.02	1.04	1.11	1.06		1.01	1.02
